In article PMC9501633, “Synthesis, Characterisation and Mechanism of Action of Anticancer 3-Fluoroazetidin-2-ones” (Pharmaceuticals, 2022):

Experiments:
Assay type in all cases: cell-based, human
[1] = test system: HCT-15; test: NCI 60 cell line screen, Colon; settings: one dose 10 µM; for inhibition at 10 µM: Homo sapiens
[2] = test system: UACC-257; test: NCI 60 cell line screen, Melanoma; settings: one dose 10 µM; for inhibition at 10 µM: Homo sapiens
[3] = test system: NCI-H322M; test: NCI 60 cell line screen, NSCLung; settings: one dose 10 µM; for inhibition at 10 µM: Homo sapiens
[4] = test system: SK-OV-3; test: NCI 60 cell line screen, Ovarian; settings: one dose 10 µM; for inhibition at 10 µM: Homo sapiens
[5] = test system: SN12C; test: NCI 60 cell line screen, Renal; settings: one dose 10 µM; for inhibition at 10 µM: Homo sapiens
[6] = test system: HT29; test: NCI 60 cell line screen, Colon; settings: for inhibition at 10 µM: Homo sapiens, HT-29, one dose 10 µM; for Growth %: one dose 10 µM
[7] = test system: NCI-H226; test: NCI 60 cell line screen, NSCLung; settings: one dose 10 µM; for inhibition at 10 µM: Homo sapiens
[8] = test system: K-562; test: NCI 60 cell line screen, Leukaemia; settings: for inhibition at 10 µM: Homo sapiens, K562, one dose 10 µM; for Growth %: one dose 10 µM
[9] = test system: A498; test: NCI 60 cell line screen, Renal; settings: one dose 10 µM; for inhibition at 10 µM: Homo sapiens
[10] = test system: TK-10; test: NCI 60 cell line screen, Renal; settings: one dose 10 µM; for inhibition at 10 µM: Homo sapiens
[11] = test system: HOP-92; test: NCI 60 cell line screen, NSCLung; settings: one dose 10 µM; for inhibition at 10 µM: Homo sapiens
[12] = test system: OVCAR-5; test: NCI 60 cell line screen, Ovarian; settings: one dose 10 µM; for inhibition at 10 µM: Homo sapiens
[13] = test system: DU-145; test: NCI 60 cell line screen, Prostate; settings: one dose 10 µM; for inhibition at 10 µM: Homo sapiens
[14] = test system: SW-620; test: NCI 60 cell line screen, Colon; settings: one dose 10 µM; for inhibition at 10 µM: Homo sapiens
[15] = test system: SF-268; test: NCI 60 cell line screen, CNS; settings: one dose 10 µM; for inhibition at 10 µM: Homo sapiens
[16] = test system: 786–0; test: NCI 60 cell line screen, Renal; settings: 786-0, one dose 10 µM; for inhibition at 10 µM: Homo sapiens
[17] = test system: M14; test: NCI 60 cell line screen, Melanoma; settings: one dose 10 µM; for inhibition at 10 µM: Homo sapiens
[18] = test system: A549/A TCC; test: NCI 60 cell line screen, NSCLung; settings: one dose 10 µM; for inhibition at 10 µM: Homo sapiens
[19] = test system: COLO 205; test: NCI 60 cell line screen, Colon; settings: one dose 10 µM; for inhibition at 10 µM: Homo sapiens
[20] = test system: OVCAR-4; test: NCI 60 cell line screen, Ovarian; settings: one dose 10 µM; for inhibition at 10 µM: Homo sapiens
[21] = test system: SK-MEL-2; test: NCI 60 cell line screen, Melanoma; settings: one dose 10 µM; for inhibition at 10 µM: Homo sapiens
[22] = test system: MOLT-4; test: NCI 60 cell line screen, Leukaemia; settings: one dose 10 µM; for inhibition at 10 µM: Homo sapiens
[23] = test system: MDA-MB-435; test: NCI 60 cell line screen, Melanoma; settings: one dose 10 µM; for inhibition at 10 µM: Homo sapiens
[24] = test system: HL-60(TB); test: NCI 60 cell line screen, Leukaemia; settings: one dose 10 µM; for inhibition at 10 µM: Homo sapiens
[25] = test system: RXF 393; test: NCI 60 cell line screen, Renal; settings: one dose 10 µM; for inhibition at 10 µM: Homo sapiens
[26] = test system: UO-31; test: NCI 60 cell line screen, Renal; settings: one dose 10 µM; for inhibition at 10 µM: Homo sapiens
[27] = test system: MALME-3M; test: NCI 60 cell line screen, Melanoma; settings: one dose 10 µM; for inhibition at 10 µM: Homo sapiens
[28] = test system: MCF7; test: NCI 60 cell line screen, Breast; settings: one dose 10 µM; for inhibition at 10 µM: Homo sapiens, MCF7, MCF7; for Growth % / Inhibition %: MCF7

CCOc1ccc(C2N(c3cc(OC)c(OC)c(OC)c3)C(=O)C2(F)F)cc1 (stereo not drawn) [Compound 37, 4-(4-Ethoxyphenyl)-3,3-difluoro-1-(3,4,5-trimethoxyphenyl)azetidin-2-one]
inhibition at 10 µM [1]: 77.5% | Growth % [1]: 22.55% | inhibition at 10 µM [2]: 41.3% | Growth % [2]: 58.69% | inhibition at 10 µM [3]: 32.8% | Growth % [3]: 67.23% | inhibition at 10 µM [4]: 28.1% | Growth % [4]: 71.89% | inhibition at 10 µM [5]: 49% | Growth % [5]: 50.97% | inhibition at 10 µM [6]: 87.7% | Growth % [6]: 12.27% | inhibition at 10 µM [7]: 29% | Growth % [7]: 71.01% | inhibition at 10 µM [8]: 91.5% | Growth % [8]: 8.49% | inhibition at 10 µM [9]: 7.7% | Growth % [9]: 92.3% | inhibition at 10 µM [10]: -3.32% | Growth % [10]: 103.32% | inhibition at 10 µM [11]: 44.4% | Growth % [11]: 55.62% | inhibition at 10 µM [12]: 33.5% | Growth % [12]: 66.47% | inhibition at 10 µM [13]: 70% | Growth % [13]: 30.05% | inhibition at 10 µM [14]: 74.5% | Growth % [14]: 25.47% | inhibition at 10 µM [15]: 47.6% | Growth % [15]: 52.38% | Growth % [16]: 64.68% | inhibition at 10 µM [16]: 35.3% | inhibition at 10 µM [17]: 72.5% | Growth % [17]: 27.45% | inhibition at 10 µM [18]: 66.4% | Growth % [18]: 33.56% | inhibition at 10 µM [19]: 89.2% | Growth % [19]: 10.78% | inhibition at 10 µM [20]: 50.4% | Growth % [20]: 49.59% | inhibition at 10 µM [21]: 8.22% | Growth % [21]: 91.78% | inhibition at 10 µM [22]: 81.9% | Growth % [22]: 18.14% | inhibition at 10 µM [23]: 83.2% | Growth % [23]: 16.83% | inhibition at 10 µM [24]: 116% | Growth % [24]: -15.97% | inhibition at 10 µM [25]: 45.8% | Growth % [25]: 54.19% | inhibition at 10 µM [26]: 48.1% | Growth % [26]: 51.9% | inhibition at 10 µM [27]: 36.9% | Growth % [27]: 63.07% | inhibition at 10 µM [28]: 82.8% | Growth % [28]: 17.19% | Inhibition % [28]: 82.8%

COc1ccc(C2N(c3cc(OC)c(OC)c(OC)c3)C(=O)C2(F)F)cc1F (stereo not drawn) [Compound 43, 3,3-Difluoro-4-(3-fluoro-4-methoxyphenyl)-1-(3,4,5-trimethoxyphenyl)azetidin-2-one]
inhibition at 10 µM [1]: 80.6% | Growth % [1]: 19.44% | inhibition at 10 µM [2]: 50% | Growth % [2]: 50.01% | inhibition at 10 µM [3]: 8.79% | Growth % [3]: 91.21% | inhibition at 10 µM [4]: 24.5% | Growth % [4]: 75.49% | inhibition at 10 µM [5]: 45.1% | Growth % [5]: 54.92% | inhibition at 10 µM [6]: 88.8% | Growth % [6]: 11.16% | inhibition at 10 µM [7]: 24.5% | Growth % [7]: 75.53% | inhibition at 10 µM [8]: 89.5% | Growth % [8]: 10.5% | inhibition at 10 µM [9]: 2.19% | Growth % [9]: 97.81% | inhibition at 10 µM [10]: -5.64% | Growth % [10]: 105.64% | inhibition at 10 µM [11]: 39.2% | Growth % [11]: 60.84% | inhibition at 10 µM [12]: 21.3% | Growth % [12]: 78.72% | inhibition at 10 µM [13]: 74.8% | Growth % [13]: 25.22% | inhibition at 10 µM [14]: 78.8% | Growth % [14]: 21.22% | inhibition at 10 µM [15]: 47.1% | Growth % [15]: 52.94% | Growth % [16]: 75.35% | inhibition at 10 µM [16]: 24.6% | inhibition at 10 µM [17]: 75.8% | Growth % [17]: 24.24% | inhibition at 10 µM [18]: 51.4% | Growth % [18]: 48.65% | inhibition at 10 µM [19]: 83.7% | Growth % [19]: 16.32% | inhibition at 10 µM [20]: 41.7% | Growth % [20]: 58.34% | inhibition at 10 µM [21]: 15.4% | Growth % [21]: 84.61% | inhibition at 10 µM [22]: 81.3% | Growth % [22]: 18.67% | inhibition at 10 µM [23]: 87.1% | Growth % [23]: 12.92% | inhibition at 10 µM [24]: 99.1% | Growth % [24]: 0.94% | inhibition at 10 µM [25]: 50.6% | Growth % [25]: 49.36% | inhibition at 10 µM [26]: 46.5% | Growth % [26]: 53.48% | inhibition at 10 µM [27]: 35.9% | Growth % [27]: 64.09% | inhibition at 10 µM [28]: 84.9% | Growth % [28]: 15.06% | Inhibition % [28]: 84.9%
